Assay [1] concerns the target T1, Bradykinin-1 receptor (Homo sapiens (Human), UniProt P46663). The experiment in a line: Calcium mobilization assay (FLIPR, Fluo-4) in GeneBLAzer Bradykinin (B1)-NFAT-bla CHO-K1 cells. In kind it is cell-based. The note with it: antagonist activity; CHO-K1 cells stably overexpressing the human bradykinin 1 receptor; read-out: Ca mobilization Assay IC50. On the procedure: Calcium Mobilization Assay
GeneBLAzer® Bradykinin (B1)-NFAT-bla CHO-K1 cells (from Invitrogen) stably overexpressing the human bradykinin 1 receptor were cultured in DMEM (high glucose) supplemented with 10% dialysed FBS, 1% NEAA (non essential amino acids) 1% penicillin/streptomycin, 1% G418 and 0.1 mg/ml zeocin.
For the assay cells were grown overnight in 384-well black clear flat bottom polystyrene plates (Costar) at 37° C. at 5% CO2. After washing with DMEM, 20 mM Hepes, 2.5 mM probenecid, 0.1% BSA (DMEM assay buffer) cells were loaded with 4 μM Fluo-4 in the same DMEM assay buffer for 2 hours at 30° C. Excess dye was removed and cells were washed with DMEM assay buffer. 384-well compound plates were prepared with DMEM assay buffer/0.5% DMSO with or without various concentrations of test compounds. Usually compounds were tested for agonist and antagonist activity.
Test compounds were added to the assay plate and agonist activity was monitored as fluorescence for 80 seconds with a FLIPR (488 nm excitation; 510-570 nm emission; Molecular Devices). After 20-30 min. of incubation at 30° C., 20 nM […] (R&D; Roche) was added and fluorescence was monitored again for 80 seconds. Increases in intracellular calcium are reported as maximum fluorescence after agonist exposure minus basal fluorescence before exposure.
On the technique in general: Calcium flux is commonly read through the fluorescence of an indicator in the cells.

Assay [2] concerns the target T1, Bradykinin-1 receptor. The experiment in a line: Receptor binding assay (B1R Binding Assay), [3H]-Kallidin (Des Arg10, Leu9) displacement. The following applies: membranes from CHO-K1 cells overexpressing Bradykinin-1 receptor; 6 nM radioligand. On the procedure:
Binding assays were done with membranes from CHO-K1 cells overexpressing Bradykinin-1 receptor.
To determine non-specific binding 10 μM Lys-(Des-Arg^9)-Bradykinin (Bachem) was added. Membranes were harvested through GF/B (glass fiber filter; PerkinElmer) plates, equilibrated with 0.5% polyethylenimine, air dried at 50° C. for 2 h. Radioactivity was determined by counting in a topcounter (NXT Packard).

The IC50 is the concentration that inhibits the measured activity by half. Usually Ki stands for the equilibrium dissociation constant of an inhibitor or competing ligand from its target. Read a low Ki as tighter binding.

T1 sequence (P46663 whole entry): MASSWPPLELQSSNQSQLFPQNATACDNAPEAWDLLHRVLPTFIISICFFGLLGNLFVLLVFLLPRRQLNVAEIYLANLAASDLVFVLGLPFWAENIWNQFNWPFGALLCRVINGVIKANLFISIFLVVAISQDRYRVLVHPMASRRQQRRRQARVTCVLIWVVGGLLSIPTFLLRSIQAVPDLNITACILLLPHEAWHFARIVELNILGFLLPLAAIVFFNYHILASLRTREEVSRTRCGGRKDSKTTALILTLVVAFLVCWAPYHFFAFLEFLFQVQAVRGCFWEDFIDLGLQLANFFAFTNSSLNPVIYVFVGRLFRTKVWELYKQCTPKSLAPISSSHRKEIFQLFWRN

On to `Cc1nc(-c2c(F)cc(Cl)cc2-c2ccc3c(c2)OCC3NC(=O)C2(N)CC2)no1` (racemic) [Example 45, 1-Amino-cyclopropanecarboxylic acid{(rac)-6-[5-chloro-3-fluoro-2-(5-methyl-[1,2,4]oxadiazol-3-yl)-phenyl]-2,3-dihydro-benzofuran-3-yl}-amide], for which the concentration for half-maximal inhibition (IC50) at Bradykinin-1 receptor [1] is 701 nM. For the same compound, the Ki on Bradykinin-1 receptor [2] was determined as 1530 nM.
Take `O=C(NC1(C(=O)NC2CCCc3cc(-c4cc(Cl)cc(Cl)c4OCC(F)F)ccc32)CC1)C(F)(F)F` (racemic) [Example 9, 1-(2,2,2-Trifluoro-acetylamino)-cyclopropanecarboxylic acid{(rac)-6-[3,5-dichloro-2-(2,2-difluoro-ethoxy)-phenyl]-1,2,3,4-tetrahydro-naphthalen-1-yl}-amide]: the IC50 at Bradykinin-1 receptor [1] worked out at 82.6 nM. At Bradykinin-1 receptor [2], the affinity, expressed as Ki, was 236 nM.
On to `COC(=O)c1c(Cl)cccc1-c1ccc2c(c1)CCCC2NC(=O)C1(NC(=O)C(F)(F)F)CC1` (racemic) [Example 10, (rac)-2-Chloro-6-(5-{[1-(2,2,2-trifluoro-acetylamino)-cyclopropanecarbonyl]-amino}-5,6,7,8-tetrahydro-naphthalen-2-yl)-benzoic acid methyl ester], for which the IC50 at Bradykinin-1 receptor [1] came out at 118 nM. Further, the Ki on Bradykinin-1 receptor [2] is 522 nM.
For the compound `Cc1nc(-c2c(F)cc(Cl)cc2-c2ccc3c(c2)CC[C@@H]3NC(=O)C2(NC(=O)c3ccno3)CC2)no1` [Example 28, Isoxazole-5-carboxylic acid(1-{(S)-5-[5-chloro-3-fluoro-2-(5-methyl-[1,2,4]oxadiazol-3-yl)-phenyl]-indan-1-ylcarbamoyl}-cyclopropyl)-amide], the IC50 on Bradykinin-1 receptor [1] worked out at 0.3 nM. In addition, the Ki on Bradykinin-1 receptor [2] was determined as 4.1 nM.
On to `Cc1cc(C(=O)NC2(C(=O)NC3CCc4cc(-c5cc(Cl)cc(F)c5-c5nnn(C)n5)cnc43)CC2)on1` (racemic) [Example 58, 3-Methyl-isoxazole-5-carboxylic acid(1-{(rac)-3-[5-chloro-3-fluoro-2-(2-methyl-2H-tetrazol-5-yl)-phenyl]-6,7-dihydro-5H-[1]pyrindin-7-ylcarbamoyl}-cyclopropyl)-amide], for which the IC50 on Bradykinin-1 receptor [1] was 0.4 nM. The same compound showed a Ki at Bradykinin-1 receptor [2] of 6.3 nM.
`Cn1nnc(-c2c(F)cc(Cl)cc2-c2ccc3c(c2)SCC3NC(=O)C2(NC(=O)C(F)(F)F)CC2)n1` (racemic) [Example 22, 1-(2,2,2-Trifluoro-acetylamino)-cyclopropanecarboxylic acid{(rac)-6-[5-chloro-3-fluoro-2-(2-methyl-2H-tetrazol-5-yl)-phenyl]-2,3-dihydro-benzo[b]thiophen-3-yl}-amide]: on Bradykinin-1 receptor [1], the IC50 turned out to be 0.8 nM. The compound further displayed a Ki on Bradykinin-1 receptor [2] of 6.6 nM.
As to `Cc1nc(-c2c(F)cc(Cl)cc2-c2ccc3c(c2)CCCC3NC(=O)C2(NC(=O)C(F)(F)F)CC2)no1` (racemic) [Example 11, 1-(2,2,2-Trifluoro-acetylamino)-cyclopropanecarboxylic acid{(rac)-6-[5-chloro-3-fluoro-2-(5-methyl-[1,2,4]oxadiazol-3-yl)-phenyl]-1,2,3,4-tetrahydro-naphthalen-1-yl}-amide], at Bradykinin-1 receptor [1], the IC50 is 4 nM. Moreover, the Ki at Bradykinin-1 receptor [2] is 41.6 nM.
With `Cn1nnc(-c2c(F)cc(Cl)cc2-c2cnc3c(c2)CCC3NC(=O)C2(NC(=O)C(F)(F)F)CC2)n1` (racemic) [Example 13, 1-(2,2,2-Trifluoro-acetylamino)-cyclopropanecarboxylic acid{(rac)-3-[5-chloro-3-fluoro-2-(2-methyl-2H-tetrazol-5-yl)-phenyl]-6,7-dihydro-5H-[1]pyrindin-7-yl}-amide], on Bradykinin-1 receptor [1], the IC50 was 0.5 nM. On Bradykinin-1 receptor [2], the Ki came out at 9.5 nM.
As for `Cc1nc(-c2c(F)cc(Cl)cc2-c2ccc3c(c2)CC[C@@H]3NC(=O)C2(NC(=O)C(F)(F)F)CC2)no1` [Example 5, 1-(2,2,2-Trifluoro-acetylamino)-cyclopropanecarboxylic acid{(S)-5-[5-chloro-3-fluoro-2-(5-methyl-[1,2,4]oxadiazol-3-yl)-phenyl]-indan-1-yl}-amide], the IC50 at Bradykinin-1 receptor [1] was 0.6 nM. This compound displayed a Ki at Bradykinin-1 receptor [2] of 6.2 nM.
In the case of `Cc1nc(-c2c(F)cc(Cl)cc2-c2ccc3c(c2)OCC3NC(=O)C2(NC(=O)C(F)(F)F)CC2)no1` (racemic) [Example 19, 1-(2,2,2-Trifluoro-acetylamino)-cyclopropanecarboxylic acid{(rac)-6-[5-chloro-3-fluoro-2-(5-methyl-[1,2,4]oxadiazol-3-yl)-phenyl]-2,3-dihydro-benzofuran-3-yl}-amide], on Bradykinin-1 receptor [1], the IC50 was determined as 4.5 nM. Further, at Bradykinin-1 receptor [2], the Ki is 33.3 nM.
In the case of `COc1ncc(C(=O)NC2(C(=O)N[C@H]3CCc4cc(-c5cc(Cl)cc(F)c5-c5noc(C)n5)ccc43)CC2)cn1` [Example 26, 2-Methoxy-pyrimidine-5-carboxylic acid(1-{(S)-5-[5-chloro-3-fluoro-2-(5-methyl-[1,2,4]oxadiazol-3-yl)-phenyl]-indan-1-ylcarbamoyl}-cyclopropyl)-amide], the IC50 on Bradykinin-1 receptor [1] is 0.2 nM. The affinity on Bradykinin-1 receptor [2], expressed as Ki, was 2.6 nM.
Regarding `COc1cc(C(=O)NC2(C(=O)NC3CCc4cc(-c5cc(Cl)cc(F)c5-c5nnn(C)n5)cnc43)CC2)on1` (racemic) [Example 59, 3-Methoxy-isoxazole-5-carboxylic acid(1-{(rac)-3-[5-chloro-3-fluoro-2-(2-methyl-2H-tetrazol-5-yl)-phenyl]-6,7-dihydro-5H-[1]pyrindin-7-ylcarbamoyl}-cyclopropyl)-amide], the 50% inhibitory concentration (IC50) on Bradykinin-1 receptor [1] is 0.3 nM. In addition, the affinity on Bradykinin-1 receptor [2], expressed as Ki, was 3.5 nM.
As to `Cc1cc(C(=O)NC2(C(=O)N[C@H]3CCc4cc(-c5cc(Cl)cc(F)c5-c5noc(C)n5)ccc43)COC2)on1` [Example 52, 3-Methyl-isoxazole-5-carboxylic acid (3-{(S)-5-[5-chloro-3-fluoro-2-(5-methyl-[1,2,4]oxadiazol-3-yl)-phenyl]-indan-1-ylcarbamoyl}-oxetan-3-yl)-amide], the IC50 on Bradykinin-1 receptor [1] is 4.3 nM. The compound further showed an inhibition constant (Ki) on Bradykinin-1 receptor [2] of 25.7 nM.
Regarding `Cc1nc(-c2c(F)cc(Cl)cc2-c2ccc3c(c2)CCC3(C)NC(=O)C2(NC(=O)C(F)(F)F)CC2)no1` (racemic) [Example 17, 1-(2,2,2-Trifluoro-acetylamino)-cyclopropanecarboxylic acid{(rac)-5-[5-chloro-3-fluoro-2-(5-methyl-[1,2,4]oxadiazol-3-yl)-phenyl]-1-methyl-indan-1-yl}-amide], the IC50 at Bradykinin-1 receptor [1] turned out to be 0.6 nM. Also, the affinity at Bradykinin-1 receptor [2], expressed as Ki, was 5.9 nM.
Turning to `Cc1nc(-c2c(F)cc(Cl)cc2-c2ccc3c(c2)OCCC3NC(=O)C2(NC(=O)C(F)(F)F)CC2)no1` (racemic) [Example 14, 1-(2,2,2-Trifluoro-acetylamino)-cyclopropanecarboxylic acid{(rac)-7-[5-chloro-3-fluoro-2-(5-methyl-[1,2,4]oxadiazol-3-yl)-phenyl]-chroman-4-yl}-amide], at Bradykinin-1 receptor [1], the IC50 stood at 24.8 nM. At Bradykinin-1 receptor [2], this compound returned an inhibition constant Ki of 212 nM.
As to `Cn1nnc(-c2c(F)cc(Cl)cc2-c2ccc3c(c2)SCC3NC(=O)C2(NC(=O)c3cncnc3)CC2)n1` (racemic) [Example 63, Pyrimidine-5-carboxylic acid(1-{(rac)-6-[5-chloro-3-fluoro-2-(2-methyl-2H-tetrazol-5-yl)-phenyl]-2,3-dihydro-benzo[b]thiophen-3-ylcarbamoyl}-cyclopropyl)-amide], the IC50 on Bradykinin-1 receptor [1] was 0.2 nM. Further, the affinity on Bradykinin-1 receptor [2], expressed as Ki, was 4.8 nM.
Consider `COc1ncc(C(=O)NC2(C(=O)NC3CCc4cc(-c5cc(Cl)cc(F)c5-c5noc(C)n5)cc(F)c43)CC2)cn1` (racemic) [Example 33, 2-Methoxy-pyrimidine-5-carboxylic acid(1-{(rac)-5-[5-chloro-3-fluoro-2-(5-methyl-[1,2,4]oxadiazol-3-yl)-phenyl]-7-fluoro-indan-1-ylcarbamoyl}-cyclopropyl)-amide], for which the IC50 on Bradykinin-1 receptor [1] came out at 0.5 nM. This compound came in with a Ki at Bradykinin-1 receptor [2] of 18.9 nM.
Taken in the same sequence, the figures for `Cc1nc(-c2c(F)cc(Cl)cc2-c2ccc3c(c2)CC[C@@H]3NC(=O)C2(NC(=O)c3cncnc3)CC2)no1` [Example 25, Pyrimidine-5-carboxylic acid(1-{(S)-5-[5-chloro-3-fluoro-2-(5-methyl-[1,2,4]oxadiazol-3-yl)-phenyl]-indan-1-ylcarbamoyl}-cyclopropyl)-amide] were 0.1 nM and 3.1 nM.
Taken in the same sequence, the figures for `Cc1nc(-c2c(F)cc(Cl)cc2-c2cc(F)c3c(c2)CCC3NC(=O)C2(NC(=O)OC(C)(C)C)CC2)no1` (racemic) [Example 31, (1-{(rac)-5-[5-Chloro-3-fluoro-2-(5-methyl-[1,2,4]oxadiazol-3-yl)-phenyl]-7-fluoro-indan-1-ylcarbamoyl}-cyclopropyl)-carbamic acid tert-butyl ester] were 135 nM and 475 nM.
In the case of `Cc1nc(-c2c(F)cc(Cl)cc2-c2cnc3c(c2)CCC3NC(=O)C2(NC(=O)OC(C)(C)C)CC2)no1` (racemic) [Example 36, (1-{(rac)-3-[5-Chloro-3-fluoro-2-(5-methyl-[1,2,4]oxadiazol-3-yl)-phenyl]-6,7-dihydro-5H-[1]pyrindin-7-ylcarbamoyl}-cyclopropyl)-carbamic acid tert-butyl ester], the IC50 at Bradykinin-1 receptor [1] turned out to be 3.6 nM. On Bradykinin-1 receptor [2], the Ki was determined as 361 nM.
